# Measurements reported in BindingDB's records for patent US11938127 (Wayne State University, 2024).
# Target: T1, Cytochrome P450 1A2 (Homo sapiens, UniProt P05177)
# T1 sequence (P05177 whole entry): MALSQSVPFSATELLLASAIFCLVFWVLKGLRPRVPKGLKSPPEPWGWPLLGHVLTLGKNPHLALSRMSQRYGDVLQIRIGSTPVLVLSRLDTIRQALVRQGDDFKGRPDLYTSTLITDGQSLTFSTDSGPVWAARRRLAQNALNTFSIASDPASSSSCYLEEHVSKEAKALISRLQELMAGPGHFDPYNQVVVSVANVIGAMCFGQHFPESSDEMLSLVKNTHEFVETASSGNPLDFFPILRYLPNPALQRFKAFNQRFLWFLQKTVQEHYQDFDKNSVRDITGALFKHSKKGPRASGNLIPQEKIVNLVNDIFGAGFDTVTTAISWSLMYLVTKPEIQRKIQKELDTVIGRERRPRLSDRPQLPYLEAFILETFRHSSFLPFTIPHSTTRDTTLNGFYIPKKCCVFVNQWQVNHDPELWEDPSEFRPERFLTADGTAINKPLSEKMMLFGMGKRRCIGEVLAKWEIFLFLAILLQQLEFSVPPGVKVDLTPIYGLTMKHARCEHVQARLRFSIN
# Assay: CYP1A2 Inhibition Assay
# Experimental: The quenched samples were incubated at 4° C. for 10 min and centrifuged at 4° C. for 10 min.
smiles,measurement,value
"CC(C)(C)CN1c2cccc(O)c2C(=O)CC1c1cccc(O)c1 (stereo unspecified) [US11938127, Compound KCI838]",IC50,2920 nM
